Patent publication US7205298B2, “Substituted triazine kinase inhibitors” (Janssen Pharmaceutica N.V., priority 2002, dated 2007)

Assays:
[1] = molecular target: T1, PDGF-R (beta subunit kinase domain) (Homo sapiens, UniProt P09619); test: Kinase selectivity assay PDGF-R; type: biochemical
T1 construct: nucleotides 1874–3507 of the human PDGF-R beta subunit kinase domain; polyhistidine (N)
Protocol: Assays to test compound inhibition of other kinases were preformed using methods that measure the amount of phosphorylation of a biotinylated peptide substrate. Biotinylated peptide substrates were selected from the literature as appropriate for the enzyme being evaluated. […] Assay conditions vary slightly for each protein kinase, for example, insulin receptor kinase requires 10 mM MnCl2 for activity and Calmodulin-dependent protein kinase requires calmodulin and 2 mM CaCl2. The reaction mixture was dispensed into the wells of a streptavidin coated Flashplate and 1 μL test compound in 100% DMSO was added to a 100 μL reaction volume resulting in a final concentration of 1% DMSO in the reaction. Enzyme was diluted in 50 mM Tris-HCl pH=8.0, 0.1% BSA and added to each well. The reaction was incubated for one hour at 30° C. in the presence of a test compound. After one hour the reaction mix was aspirated from the plate and the plate was washed with PBS containing 100 mM EDTA. The plate was read on a scintillation counter to determine ^33P-γ-ATP incorporated into the immobilized peptide substrate. Test compounds were assayed in duplicate at 8 concentrations (100 μM, 10 μM, 1 μM, 100 nM, 10 nM, 1 nM, 100 pM, 10 pM). A maximum and minimum signal for the assay was determined on each plate. […] Known inhibitor compounds appropriate for the kinase being assayed were also included on each plate. […]

[2] = system: A375 malignant melanoma; test: Inhibition of cell proliferation, 14C-thymidine incorporation, A375; type: cell-based; conditions: Homo sapiens, A-375
Protocol: The ability of a test compound to inhibit the proliferation of cell growth was determined by measuring incorporation of ^14C-labelled thymidine into newly synthesized DNA within the cells. This method was used on cell lines derived from carcinomas originating from several tissues such as HeLa cervical adenocarcinoma (American Type Culture Collection (ATCC), Virginia, Cat. #CCL-2), HCT-116 colon carcinoma (CCL-247), MDA-MB-231 (Xenogen Corp.), PC-3 prostate adenocarcinoma (ATCC CRL-1435) and A375 malignant melanoma (ATCC CRL-1619).
Using this method, the effect of a compound on cell growth of cells with many different phenotypes can be determined. Cells were trypsinized and counted and 3000–8000 cells were added to each well of a 96-well CytoStar tissue culture treated scintillating microplate (Amersham #RPNQ0160) in complete medium in a volume of 100 μl. Cells were incubated for 24 hours in complete medium at 37° C. in an atmosphere containing 5% CO2. 1 μL of test compound in 100% DMSO was then added to the wells of the plate. DMSO only was added to control wells. Cells were incubated for 24 more hours in complete medium at 37° C. in an atmosphere containing 5% CO2. […] The degree of methyl ^14C-thymidine incorporation was quantified on a Packard Top Count.

T1 sequence (P09619 554-1106 limits assumed): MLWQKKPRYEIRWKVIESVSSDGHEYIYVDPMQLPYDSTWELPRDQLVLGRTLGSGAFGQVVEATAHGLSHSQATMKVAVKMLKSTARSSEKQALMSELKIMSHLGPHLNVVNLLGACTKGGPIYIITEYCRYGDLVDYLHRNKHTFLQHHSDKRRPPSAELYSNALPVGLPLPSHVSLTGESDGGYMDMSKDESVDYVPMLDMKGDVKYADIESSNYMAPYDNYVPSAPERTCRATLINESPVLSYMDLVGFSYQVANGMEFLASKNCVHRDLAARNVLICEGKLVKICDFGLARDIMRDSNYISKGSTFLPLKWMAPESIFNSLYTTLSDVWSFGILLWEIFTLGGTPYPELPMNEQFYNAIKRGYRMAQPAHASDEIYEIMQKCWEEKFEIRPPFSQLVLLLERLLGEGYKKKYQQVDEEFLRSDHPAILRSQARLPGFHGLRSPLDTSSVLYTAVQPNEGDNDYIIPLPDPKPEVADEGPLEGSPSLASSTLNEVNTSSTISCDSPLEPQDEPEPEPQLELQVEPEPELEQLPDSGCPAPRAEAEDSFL

IC50 [1] | SMILES | IC50 [2]
1180 nM | OCCCNc1cncc(-c2ncnc(Nc3cccc(Cl)c3)n2)c1 [Compound 1, 3-((5-(4-((3-chlorophenyl)amino)-1,3,5-triazin-2-yl)-3-pyridinyl)amino)-1-propanol] | –
– | OCCCNc1cc(-c2ncnc(Nc3cccc(Cl)c3)n2)ccn1 [Compound 2, 3-((4-(4-((3-chlorophenyl)amino)-1,3,5-triazin-2-yl)-2-pyridinyl)amino)-1-propanol] | 80 nM
